Values quoted from earlier work as cited in US9999602B2, “Liquid menthol compositions” (DDROPS COMPANY, priority 2013, dated 2018).

Details: FDA review, Federal Register 1987

In the case of `CC(C)[C@@H]1CC[C@@H](C)C[C@H]1O` [menthol, (1R, 2S, 5R)-5-menthol-2-(1-methylethyl)-cyclohexanol], the “Dose of menthol required for antitussive (cough-suppressant) effect” value is given as “at least 5 mg”.
